# Experimental data from patent US11273206B2, “Targeting of pharmaceutical agents to pathologic areas using bifunctional fusion polypeptides” (Counterpoint Biomedica LLC, priority 2014, dated 2022).
# Where a SMILES comes first, the peptide text is derived from it. Primed or numbered codes have the meaning given here. Where no end group is shown, it is not given here. [ ]: non-standard residue; d: D form. The star is where a group is joined. FITC = O=C1OC2(c3ccc(O)cc3Oc3cc(O)ccc32)c2ccc(NC(=S)*)cc21; FITC′ = fluorescein isothiocyanate label; PEG = not defined here
# What was measured:
# [1] = test system: collagen agarose beads; assay: Collagen-agarose column chromatography of mAb-aptamers with fluorescent Rabbit-Anti-Human Abs; format: binding; details: FIG. 7B
# [2] = test system: Collagen-Agarose beads; assay: Collagen-agarose chromatography of RNA-Apts with Oregon Green 488 labeled oligonucleotides; format: binding; details: for retention of labeled oligonucleotides on collagen-agarose mini-columns: FIG. 10C; for depletion of fluorescently labeled oligonucleotides from the column eluates: increasing amounts of RNA-Apt, FIG. 10B
# Method: Short oligonucleotides labeled with Oregon Green 488 were incubated with increasing amounts of RNA-Apt 07 or RNA-Apt 08 in PBS for 30 min at 30° C. and then applied to the chromatography column of collagen-agarose beads, followed by successive washes with (1) PBS, (2) PBS/PBS, Tween-20, BSA. The retention to the column was documented by use of a blue-light transilluminator with an amber filter; quantitative data was obtained with a Quantus fluorometer.
# [3] = test system: subcutaneous human pancreatic cancer xenografts; details: paclitaxel without aptamer; cited from earlier work
# [4] = test system: Locally Recurrent or Metastatic Breast Cancer; details: Phase III, once per week; cited from earlier work
# [5] = test system: subcutaneous human pancreatic cancer xenografts
# [6] = Serum stability (resistance to proteolysis) of mAb-aptamers; format: in vitro ADME; details: FIG. 7C
# Description: The serum stability (resistance to proteolysis) of mAb-Aptamer 1, mAb-Aptamer 2 and mAb-Aptamer 4 were further analyzed.
# [7] = test system: subcutaneous tumors; assay: Tumor targeting of FITC-labeled collagen-binding construct after intravenous infusion; format: in vivo; details: intravenous infusion into the tail vein of nude mice; FIGS. 3C-3D
# [8] = Serum stability (resistance to proteolysis) of Tx-Apts; format: in vitro ADME; details: FIG. 4C
# [9] = test system: Collagen-Agarose beads; assay: Collagen-agarose column chromatography of FITC-labeled collagen-binding constructs; details: increasing amounts applied to Collagen-Agarose beads, in vitro; FIG. 3B
# Description: Three fluorescein isothiocyanate (FITC)-labeled collagen-binding constructs were generated and tested. Construct 1 (ac-L1/XC-BD1/L3/FITC) had the sequence of Ac-RRGVHVGWREPSFMALSMPHGGSGK-(FITC) (SEQ ID NO: 45); Construct 2(ac-L1/XC-BD2/L3/FITC) had the sequence of Ac-RRGVHVGWREPGRMELNMPHGGSGK-(FITC) (SEQ ID NO: 46); Construct 3 (ac-L2/XC-BD2/L3/FITC) had the sequence of Ac-RRGVRVAWREPGRMELNMPHGGSGK-(FITC) (SEQ ID NO: 47). […] Increasing amounts of these constructs were applied to the chromatography columns of Collagen-Agarose beads, followed by successive washes with (1) PBS, (2) PBS/PBS, Tween-20, BSA. The retention of the constructs to the column was documented by use of a blue-light transilluminator with an amber filter; quantitative data was obtained with a Quantus fluorometer.
compound,measurement,setting,value
r-r-GVHVGWREPGRMELNMPHGGSGGHWRGWVAGGSGGHWRGWV-a-a ([dR][dR]GVHVGWREPGRMELNMPHGGSGGHWRGWVAGGSGGHWRGWV[dA][dA]) [mAb-Aptamer 2],binding of antibodies to the collagen beads,[1],higher binding
RRGVHVGWREPSFMALSMPHGGRRRRRRRRR [RNA-Apt 08],retention of labeled oligonucleotides on collagen-agarose mini-columns,[2],retaining the labeled oligonucleotides on the collagen-agarose mini-columns
same,depletion of fluorescently labeled oligonucleotides from the column eluates,[2],depleted fluorescently labeled-oligonucleotides from the eluates
CC(=O)O[C@H]1C(=O)[C@@]2(C)[C@H]([C@H](OC(=O)c3ccccc3)[C@]3(O)C[C@H](OC(=O)[C@H](O)[C@@H](NC(=O)c4ccccc4)c4ccccc4)C(C)=C1C3(C)C)[C@]1(OC(C)=O)CO[C@@H]1C[C@@H]2O [paclitaxel],normal effective dose of paclitaxel in mice,[3],10 mg/kg
same,clinical performance compared with Abraxane,[4],just as good or better than Abraxane
same,toxicity compared with Abraxane,[4],significantly less toxicity
same,active dose as fraction of the low metronomic doses commonly used,[5]; targeted paclitaxel treated mice,1/10
same,active dose as fraction of the normal effective dose of paclitaxel in mice,[5]; used with Taxol-aptamer,1/50
same,dose at which paclitaxel exhibited anti-angiogenic activity,"[5]; used with Taxol-aptamer, FIG. 6C",0.2 mg/kg
(PEG)-[C-A-R-R-G-V-H-V-G]-W-R-E-P-G-R-M-E-L-N-M-P-H-[G-G-S-G-G]-H-W-R-G-W-V-A-[G-G-S-G-G]-H-W-R-G-W-V-A-p-t ({PEG}-CARRGVHVGWREPGRMELNMPHGGSGGHWRGWVAGGSGGHWRGWVA[dP][dT]; reading uncertain; also: printed as (PEG)-[C-A-R-R-G-V-H-V-G]-W-R-E-P-G-R-M-E-L-N-M-P-H-[G-G-S-G-G]-H-W-R-G-W-V-A-[G-G-S-G-G]-H-W-R-G-W-V-A-p-t) [mAb-Aptamer 4],binding of antibodies to the collagen beads,[1],higher binding
same,serum stability (resistance to proteolysis),[6],greatest serum stability
RRRRRRRRRRRGVHVGWREPSFMALSMPHGG [RNA-Apt 07],retention of labeled oligonucleotides on collagen-agarose mini-columns,[2],retaining the labeled oligonucleotides on the collagen-agarose mini-columns
same,depletion of fluorescently labeled oligonucleotides from the column eluates,[2],depleted fluorescently labeled-oligonucleotides from the eluates
"CSCC[C@H](NC(=O)[C@H](CCCNC(=N)N)NC(=O)CNC(=O)[C@@H]1CCCN1C(=O)[C@H](CCC(=O)O)NC(=O)[C@H](CCCNC(=N)N)NC(=O)[C@H](Cc1c[nH]c2ccccc12)NC(=O)CNC(=O)[C@@H](NC(=O)[C@H](Cc1c[nH]cn1)NC(=O)[C@@H](NC(=O)CNC(=O)[C@H](CCCNC(=N)N)NC(=O)[C@H](CCCNC(=N)N)NC(C)=O)C(C)C)C(C)C)C(=O)N[C@@H](CCC(=O)O)C(=O)N[C@@H](CC(C)C)C(=O)N[C@@H](CC(N)=O)C(=O)N[C@@H](CCSC)C(=O)N1CCC[C@H]1C(=O)N[C@@H](Cc1c[nH]cn1)C(=O)NCC(=O)NCC(=O)N[C@@H](CO)C(=O)NCC(=O)N[C@@H](CCCCNC(=S)Nc1ccc2c(c1)C(=O)OC21c2ccc(O)cc2Oc2cc(O)ccc21)C(=O)O [Construct 2, Ac-RRGVHVGWREPGRMELNMPHGGSGK-(FITC)] (Ac-RRGVHVGWREPGRMELNMPHGGSGK(FITC)-OH)",targeting to subcutaneous tumors (fluorescence),[7],efficiently targeted to subcutaneous tumors
"Ac-[dR][dR]GVHVGWREPGRMELNMPHGGSGRGVGIMKACGRTRHTVR[dM]G (N-terminus assumed) [Tx-Apt2, Ac-[r-r-G-V-H-V-G]-W-R-E-P-G-R-M-E-L-N-M-P-H-[G-G-S-G]-R-G-V-G-I-M-K-A-C-G-R-T-R-H-T-V-R-m-G]",serum stability (resistance to proteolysis) over time,[8],most stable
Ac-RRGVHVGWREPSFMALSMPHGGSGK-(FITC) (Ac-RRGVHVGWREPSFMALSMPHGGSGK(FITC′)) [Construct 1],binding to collagen (retention of the constructs to the column),[9],bound to collagen in a dose dependent manner
